Assay results as given in patent US20030229105A1, “Treatment of autoimmune disorders” (Cyclacel Limited, priority 2002, published 2003).

Key:
[1] = target: cdk4 (Homo sapiens, UniProt P11802); conditions: cited from earlier work
[2] = tested on: HIV-1 genomic, structural, and regulatory RNAs; assay: Northern blot with whole genomic HIV-1 probe in ACH2 cells; type: cell-based; conditions: ACH2, TNF-α, then increasing concentrations (1, 10, 50 μM)
Experimental: At days 2, 4, and 6, the supernatants were collected, and the released HIV-1 particles were measured by using a p24 antigen ELISA assay. (B) Twenty micrograms of total RNA was separated on an RNA-formaldehyde-agarose gel, transferred, and probed with full-length labeled HIV-1 genome RNA. The hybridized genomic RNA, singly spliced (structural), and doubly spliced (regulatory) RNAs were exposed and counted by using Molecular Dynamic PhosphorImager software.

[3] = target: cdk6 (Homo sapiens, UniProt Q00534); conditions: cited from earlier work
[4] = tested on: HIV-1-infected ACH2 cells; assay: Annexin V and PI double staining flow cytometry; type: cell-based; conditions: ACH2, especially with TNF-α; 10 μM, 48 h
Source text: Apoptosis and necrosis are two pathways that lead to cell death. Apoptosis is characterized by a series of morphological features, including cell shrinkage, plasma membrane blebbing, phosphatidylserine translocation to the outer leaflet of the plasma membrane, nuclear condensation, and DNA fragmentation (1). To distinguish apoptotic from necrotic cells, we performed a flow cytometry experiment using Annexin V and PI double staining. Annexin V is a sensitive probe for phosphatidylserine, and PI was used to detect membrane loss, since membrane loss leads to the accessibility of PI staining to DNA. […] At 48 h after drug treatment, most of the apoptotic cells were found at the late stage of apoptosis and not in the necrotic population (FIG. 6A). […] Absorbances of the samples were read every 60 min in a Spectramax 250 microplate reader at 405 nm.
(§1) Cells were collected, stained with PI and FITC-Annexin V, and analyzed by FACS. […] The antigen-antibody complexes were detected using ^125I-labeled protein G. (C) Cells were washed in PBS and analyzed for caspase-3 activity using a colorimetric protease assay kit (Chemicon). […] Absorbances of samples were read every 60 min in a microplate reader at 405 nm.
Apoptosis was determined by using Annexin V and PI double staining (Annexin V-FITC; PharMingen International). […] Cells were acquired and analyzed using CELLQuest software (Becton Dickinson).

[5] = tested on: caspase-3; assay: Caspase-3 colorimetric protease assay (DEVD-pNA) on cell lysates; type: cell-based; conditions: induced ACH2 cells, 37° C., 3 h
Source text: Apoptosis and necrosis are two pathways that lead to cell death. Apoptosis is characterized by a series of morphological features, including cell shrinkage, plasma membrane blebbing, phosphatidylserine translocation to the outer leaflet of the plasma membrane, nuclear condensation, and DNA fragmentation (1). To distinguish apoptotic from necrotic cells, we performed a flow cytometry experiment using Annexin V and PI double staining. Annexin V is a sensitive probe for phosphatidylserine, and PI was used to detect membrane loss, since membrane loss leads to the accessibility of PI staining to DNA. […] Absorbances of the samples were read every 60 min in a Spectramax 250 microplate reader at 405 nm.
as §1
Cells were washed in PBS and analyzed for caspase-3 activity by using a CPP32/Caspase-3 Colorimetric Protease Assay Kit (Chemicon, Temecula, Calif.) according to the manufacturers' instructions. […] Protein concentrations of the lysates were determined by using the bicinchoninic acid assay reagent (Pierce, Rockford, Ill.). […]

[6] = tested on: U1 cells (latently HIV-1 infected); assay: Cell cycle analysis (PI staining, FACS) of HIV-1-infected U1 cells; conditions: U1 cells plus TNF-α (FIG. 2C)
[7] = tested on: U937 uninfected monocytic parental cell line; assay: Cell cycle analysis (PI staining, FACS) of uninfected U937 cells; conditions: U937 cells (FIG. 2C)
[8] = tested on: HTLV-1; assay: p19 gag ELISA of TNF-α-treated HTLV-1-infected MT-2 cells; type: cell-based; conditions: TNF-α 2 h, then drug, 7 days

Sequence of cdk6 (Q00534 whole entry): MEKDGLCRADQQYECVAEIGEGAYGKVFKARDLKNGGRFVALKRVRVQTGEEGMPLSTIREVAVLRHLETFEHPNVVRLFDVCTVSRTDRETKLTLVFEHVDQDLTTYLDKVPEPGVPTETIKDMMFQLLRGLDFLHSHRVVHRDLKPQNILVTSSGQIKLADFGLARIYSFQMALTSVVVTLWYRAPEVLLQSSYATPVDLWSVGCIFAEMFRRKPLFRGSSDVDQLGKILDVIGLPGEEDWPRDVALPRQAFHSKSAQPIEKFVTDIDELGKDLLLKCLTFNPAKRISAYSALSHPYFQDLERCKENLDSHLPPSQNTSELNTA
Sequence of cdk6 (P30279 whole entry partner): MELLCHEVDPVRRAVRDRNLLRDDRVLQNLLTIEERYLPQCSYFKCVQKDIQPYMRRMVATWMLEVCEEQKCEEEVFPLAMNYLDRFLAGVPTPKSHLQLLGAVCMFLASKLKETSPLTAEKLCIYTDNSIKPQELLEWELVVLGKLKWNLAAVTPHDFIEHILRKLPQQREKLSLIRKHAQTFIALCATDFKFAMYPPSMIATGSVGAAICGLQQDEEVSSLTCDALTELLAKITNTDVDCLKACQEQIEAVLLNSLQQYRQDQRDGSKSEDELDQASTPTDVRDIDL
Sequence of cdk4 (P11802 whole entry, species assumed): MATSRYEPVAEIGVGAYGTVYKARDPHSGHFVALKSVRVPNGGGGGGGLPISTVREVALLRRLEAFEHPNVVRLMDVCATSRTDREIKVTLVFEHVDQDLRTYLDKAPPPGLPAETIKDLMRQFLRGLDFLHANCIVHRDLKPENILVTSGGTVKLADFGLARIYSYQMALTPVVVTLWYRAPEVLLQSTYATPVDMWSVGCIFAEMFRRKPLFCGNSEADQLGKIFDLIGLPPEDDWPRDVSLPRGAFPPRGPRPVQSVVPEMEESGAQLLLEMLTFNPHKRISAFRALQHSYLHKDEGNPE
Sequence of cdk4 (P24385 whole entry partner, species assumed): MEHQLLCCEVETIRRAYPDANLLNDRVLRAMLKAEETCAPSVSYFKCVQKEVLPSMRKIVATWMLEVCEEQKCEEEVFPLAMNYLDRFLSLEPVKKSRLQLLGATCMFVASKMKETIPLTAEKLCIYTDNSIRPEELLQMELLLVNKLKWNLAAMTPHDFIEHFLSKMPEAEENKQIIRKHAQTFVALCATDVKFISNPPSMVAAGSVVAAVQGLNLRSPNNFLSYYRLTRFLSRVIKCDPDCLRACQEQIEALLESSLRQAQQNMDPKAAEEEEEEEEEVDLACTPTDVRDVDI

| Molecule | reported inhibition of cdk4 [1] | HIV-1 genomic, structural, and regulatory RNA levels [2] | reported inhibition of cdk6 [3] | number of apoptotic (Annexin V-stained) cells [4] | caspase-3 activity increase [5] | apoptosis in U1 cells [6] | apoptosis in uninfected parental cells [7] | inhibition of HTLV-1 replication (p19 gag) [8] |
| --- | --- | --- | --- | --- | --- | --- | --- | --- |
| Roscovitine | not cdk4 or -6 | dramatically decreased | not cdk4 or -6 | remarkable increase in the number of apoptotic cells | ~5 fold | abundance of the apoptotic population | no apparent apoptosis |  |
| CC(C)[C@H](CO)Nc1nc(Nc2cccc(Cl)c2)c2ncn(C(C)C)c2n1 [Purvalanol A] |  |  |  |  |  |  |  | inhibited HTLV-1 replication |
